# From paper PMC12206033, “Selective inhibition of TRPV3 channel by natural rosmarinic acid and its analogs for alleviation of skin lesions through downregulation of NF-κB pathway” (The Journal of Biological Chemistry, 2025)
# Positions count from the first letter of the chain named.
# Key:
# Type in all cases: cell-based
# [1] = molecular target: T1, hTRPA1 (Homo sapiens, UniProt O75762); assay: whole-cell patch-clamp of hTRPA1 currents activated by allyl isothiocyanate; details: ROSA 50 μM; agonist allyl isothiocyanate 300 μM; read-out: inhibition of TRPA1 currents
# T1 construct: expressed in transfected cells; host or cells: HEK293T
# T1 sequence (O75762 whole entry): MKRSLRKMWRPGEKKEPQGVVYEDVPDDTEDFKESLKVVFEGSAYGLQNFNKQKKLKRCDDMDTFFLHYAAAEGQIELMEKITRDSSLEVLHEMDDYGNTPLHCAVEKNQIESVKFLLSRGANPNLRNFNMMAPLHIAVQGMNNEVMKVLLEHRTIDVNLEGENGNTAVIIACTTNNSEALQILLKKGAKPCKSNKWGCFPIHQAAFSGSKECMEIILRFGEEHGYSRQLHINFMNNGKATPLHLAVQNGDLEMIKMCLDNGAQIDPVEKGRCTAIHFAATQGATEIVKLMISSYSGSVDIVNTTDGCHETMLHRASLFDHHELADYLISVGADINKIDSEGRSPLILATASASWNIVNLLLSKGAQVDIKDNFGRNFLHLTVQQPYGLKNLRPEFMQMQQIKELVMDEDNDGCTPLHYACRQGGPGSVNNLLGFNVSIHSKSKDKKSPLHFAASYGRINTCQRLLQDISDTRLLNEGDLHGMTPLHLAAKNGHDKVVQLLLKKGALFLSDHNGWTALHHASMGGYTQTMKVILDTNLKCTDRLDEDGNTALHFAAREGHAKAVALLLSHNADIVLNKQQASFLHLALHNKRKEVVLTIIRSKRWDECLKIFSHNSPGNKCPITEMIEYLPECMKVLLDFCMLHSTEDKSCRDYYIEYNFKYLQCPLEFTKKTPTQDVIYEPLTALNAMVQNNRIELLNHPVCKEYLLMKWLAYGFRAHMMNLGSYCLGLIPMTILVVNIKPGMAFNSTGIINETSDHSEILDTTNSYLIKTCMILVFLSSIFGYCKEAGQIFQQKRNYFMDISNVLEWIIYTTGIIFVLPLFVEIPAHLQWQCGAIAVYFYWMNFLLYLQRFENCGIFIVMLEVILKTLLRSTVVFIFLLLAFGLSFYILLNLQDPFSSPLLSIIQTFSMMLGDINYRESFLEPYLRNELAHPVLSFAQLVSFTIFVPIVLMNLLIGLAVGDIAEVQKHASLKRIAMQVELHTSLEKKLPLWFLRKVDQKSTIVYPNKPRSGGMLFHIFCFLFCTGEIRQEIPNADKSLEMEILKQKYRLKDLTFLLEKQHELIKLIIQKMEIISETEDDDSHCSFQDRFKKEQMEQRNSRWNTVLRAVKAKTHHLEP
# Description: (§1) HEK293T cell line was obtained from the Cell Resource Center, Peking Union Medical College. HEK293T cells were maintained in Dulbecco’s modified Eagle’s medium (DMEM, Gibco) supplemented with 10% fetal bovine serum at 37 °C with 5% CO2. […] The next day, determine the plasmid transfection status by observing green fluorescence based on expression of enhanced GFP as an indicator. […] When conducting experiments on HEK293T cells transfected with G573S point mutant TRPV3 plasmid, we replaced culture medium with or without compounds after 4 h of transfection and then observed green fluorescence of HEK293T cell after 10 h. As for the relative fluorescence intensity, we convert the image to 8 bit grayscale using ImageJ (Https://imagej.net/software/fiji/downloads) and set an appropriate threshold value to reduce background noise and enhance the image contrast.
# (§2) All patch-clamp recordings were conducted 16 to 24 h after transfection using an EPC10 amplifier powered by PatchMaster software (HEKA) (https://www.heka.com/downloads/downloads_main.html#down_patchmaster) at room temperature. […] Currents were recorded at a potential ramp from −100 mV to +100 mV for 1000 ms with 1000-ms intervals (for whole-cell recordings) or a persistent potential of −60 mV (inside-out patch recordings). […]
# [2] = molecular target: T2, TRPV3 T636A (Homo sapiens, UniProt Q8NET8, T636A); assay: whole-cell patch-clamp of hTRPV3 T636A mutant currents; details: ROSA 100 μM; 2-APB; read-out: inhibition of macroscopic hTRPV3 T636A currents
# T2 construct: expressed in transfected cells; host or cells: HEK293T
# T2 sequence (Q8NET8 1-790 T636A): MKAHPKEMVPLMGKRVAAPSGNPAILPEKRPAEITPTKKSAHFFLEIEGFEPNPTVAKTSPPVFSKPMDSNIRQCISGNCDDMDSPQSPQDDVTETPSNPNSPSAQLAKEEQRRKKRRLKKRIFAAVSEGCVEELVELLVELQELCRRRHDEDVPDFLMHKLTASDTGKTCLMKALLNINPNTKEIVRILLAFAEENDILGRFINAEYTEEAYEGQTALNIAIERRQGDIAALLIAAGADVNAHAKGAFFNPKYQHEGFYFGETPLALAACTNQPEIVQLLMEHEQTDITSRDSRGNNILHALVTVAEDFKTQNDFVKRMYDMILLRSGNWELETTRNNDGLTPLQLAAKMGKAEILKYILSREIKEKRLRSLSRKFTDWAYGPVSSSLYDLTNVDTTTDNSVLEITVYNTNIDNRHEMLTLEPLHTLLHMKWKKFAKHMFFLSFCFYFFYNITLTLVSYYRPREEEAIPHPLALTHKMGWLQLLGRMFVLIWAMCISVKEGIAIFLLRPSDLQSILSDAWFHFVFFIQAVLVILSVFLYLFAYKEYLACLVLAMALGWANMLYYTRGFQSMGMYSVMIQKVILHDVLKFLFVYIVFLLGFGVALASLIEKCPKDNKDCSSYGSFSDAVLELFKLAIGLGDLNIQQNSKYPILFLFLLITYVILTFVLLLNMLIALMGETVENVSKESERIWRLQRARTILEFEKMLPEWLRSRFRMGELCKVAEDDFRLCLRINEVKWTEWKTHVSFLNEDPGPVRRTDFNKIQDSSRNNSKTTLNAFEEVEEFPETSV
# Description: as §1, §2
# [3] = molecular target: T3, TRPV3 T665A (Homo sapiens, UniProt Q8NET8, T665A); assay: whole-cell patch-clamp of hTRPV3 T665A mutant currents; details: ROSA 100 μM; 2-APB; read-out: inhibition of macroscopic hTRPV3 T665A currents
# T3 construct: expressed in transfected cells; host or cells: HEK293T
# T3 sequence (Q8NET8 1-790 T665A): T2 sequence (Q8NET8 1-790 T636A) with A636T, T665A
# Description: as §1, §2
# [4] = molecular target: T3, TRPV3 T665A; assay: single-channel inside-out patch recordings of TRPV3 T665A mutant; details: ROSA 100 μM co-applied with 2-APB 50 μM; n = 4
# Description: as §1, §2
smiles,measurement,setting,value
"O=C(/C=C/c1ccc(O)c(O)c1)O[C@H](Cc1ccc(O)c(O)c1)C(=O)O [ROSA, rosmarinic acid]",inhibition at 50 µM,[1],4.5 ± 3.6%
same,inhibition at 100 µM,[2],14.7%
same,inhibition at 100 µM,[3],19.1%
same,"single-channel open probability, T665A mutant",[4],0.69
